From article PMC11003488 (Journal of Enzyme Inhibition and Medicinal Chemistry, 2023)
Like-named read-outs stand apart in the source and are kept apart here.

How the values were obtained:
MDA-MB-468 = assay: NCI-60 SRB growth inhibition, one-dose and five-dose; format: cell-based; settings: Homo sapiens; for GI50: MDA-MB-468; for inhibition at 10 µM: MDA-MB-468, read-out: percent growth inhibition
MOLT-4 = assay: as above; format: cell-based; settings: Homo sapiens; for GI50: MOLT-4; for inhibition at 10 µM: MOLT-4, read-out: percent growth inhibition
UO-31 = assay: as above; format: cell-based; settings: Homo sapiens; for GI50: UO-31
HL-60(TB) = assay: cells; format: cell-based; settings: Homo sapiens; for GI50: HL-60; for inhibition at 10 µM: HL-60, read-out: percent growth inhibition
SR = assay: NCI-60 SRB growth inhibition, one-dose and five-dose; format: cell-based; settings: Homo sapiens
SF-295 = assay: as above; format: cell-based; settings: Homo sapiens; for GI50: SF-295; for inhibition at 10 µM: SF-295, read-out: percent growth inhibition
[1] = tested on: Prostate cancer cell lines; assay: NCI-60 SRB growth inhibition, subpanel; format: cell-based, human; settings: for GI50: Homo sapiens
Renal cancer cell lines = assay: NCI-60 SRB growth inhibition, subpanel; format: cell-based, human; settings: for GI50: Homo sapiens
NSCLC cell lines = assay: NCI-60 SRB growth inhibition, subpanel; format: cell-based, human; settings: for GI50: Homo sapiens
Colon cancer cell lines = assay: NCI-60 SRB growth inhibition, subpanel; format: cell-based, human; settings: for GI50: Homo sapiens
DU-145 = assay: NCI-60 SRB growth inhibition, one-dose and five-dose; format: cell-based; settings: Homo sapiens; for GI50: DU-145; for inhibition at 10 µM: DU-145, read-out: percent growth inhibition
Human VEGFR-2 = Human VEGFR-2 (Homo sapiens, UniProt P35968); assay: VEGFR-2 inhibition assay; format: biochemical
Chain of Human VEGFR-2 (P35968 20-1356): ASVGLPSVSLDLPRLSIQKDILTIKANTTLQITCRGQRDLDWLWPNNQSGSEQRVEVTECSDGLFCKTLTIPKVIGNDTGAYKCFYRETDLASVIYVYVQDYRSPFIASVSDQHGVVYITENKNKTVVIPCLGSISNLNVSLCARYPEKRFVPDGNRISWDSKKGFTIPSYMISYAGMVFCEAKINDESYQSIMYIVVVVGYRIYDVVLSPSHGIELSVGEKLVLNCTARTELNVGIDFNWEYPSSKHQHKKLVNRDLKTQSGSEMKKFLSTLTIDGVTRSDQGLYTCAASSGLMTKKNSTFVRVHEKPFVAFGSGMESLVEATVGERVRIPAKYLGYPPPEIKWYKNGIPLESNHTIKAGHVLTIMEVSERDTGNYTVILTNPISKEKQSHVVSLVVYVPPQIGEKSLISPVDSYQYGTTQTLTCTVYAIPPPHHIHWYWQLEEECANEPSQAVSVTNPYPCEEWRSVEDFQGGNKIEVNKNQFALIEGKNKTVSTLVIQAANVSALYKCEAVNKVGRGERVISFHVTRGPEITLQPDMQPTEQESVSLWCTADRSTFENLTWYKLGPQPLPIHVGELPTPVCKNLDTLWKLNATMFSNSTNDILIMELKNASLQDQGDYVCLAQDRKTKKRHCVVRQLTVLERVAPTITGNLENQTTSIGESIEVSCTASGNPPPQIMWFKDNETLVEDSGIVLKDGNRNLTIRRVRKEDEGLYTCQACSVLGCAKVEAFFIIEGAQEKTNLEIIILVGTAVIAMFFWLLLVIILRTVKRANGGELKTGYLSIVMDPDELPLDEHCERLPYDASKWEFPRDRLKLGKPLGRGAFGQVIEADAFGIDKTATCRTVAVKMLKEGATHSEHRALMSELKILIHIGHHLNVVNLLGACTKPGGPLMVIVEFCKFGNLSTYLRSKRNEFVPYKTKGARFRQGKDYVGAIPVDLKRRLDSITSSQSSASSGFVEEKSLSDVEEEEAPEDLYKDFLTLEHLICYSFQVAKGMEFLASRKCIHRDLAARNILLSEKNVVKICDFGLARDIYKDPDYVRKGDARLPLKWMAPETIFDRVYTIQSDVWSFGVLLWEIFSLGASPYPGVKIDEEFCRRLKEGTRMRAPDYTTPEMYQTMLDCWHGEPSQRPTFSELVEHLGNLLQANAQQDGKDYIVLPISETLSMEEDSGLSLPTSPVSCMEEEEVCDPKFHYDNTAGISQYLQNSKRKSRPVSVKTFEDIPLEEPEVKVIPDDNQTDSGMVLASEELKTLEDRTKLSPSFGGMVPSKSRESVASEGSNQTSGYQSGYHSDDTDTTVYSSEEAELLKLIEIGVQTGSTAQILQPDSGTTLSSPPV

MDA-MB-435 = assay: NCI-60 SRB growth inhibition, one-dose and five-dose; format: cell-based; settings: Homo sapiens; for GI50: MDA-MB-435; for inhibition at 10 µM: MDA-MB-435, read-out: percent growth inhibition
Leukaemia cell lines = assay: NCI-60 SRB growth inhibition, subpanel; format: cell-based, human; settings: for GI50: Homo sapiens
Melanoma cell lines = assay: NCI-60 SRB growth inhibition, subpanel; format: cell-based, human; settings: for GI50: Homo sapiens
SN12C = assay: NCI-60 SRB growth inhibition, one-dose and five-dose; format: cell-based; settings: Homo sapiens; for inhibition at 10 µM: read-out: percent growth inhibition
SF-539 = assay: as above; format: cell-based; settings: Homo sapiens; for GI50: SF-539; for inhibition at 10 µM: SF-539, read-out: percent growth inhibition
CAKI-1 = assay: as above; format: cell-based; settings: Homo sapiens; for GI50: CAKI-1; for inhibition at 10 µM: CAKI-1, read-out: percent growth inhibition
[2] = tested on: WI-38 normal human fibroblast cells; assay: Cytotoxicity towards normal fibroblasts, safety index; format: cell-based; settings: WI-38 versus cancer cell lines
[3] = as above; format: cell-based, human; settings: human, WI-38 normal fibroblast cells
Breast cancer cell lines = assay: NCI-60 SRB growth inhibition, subpanel; format: cell-based, human; settings: for GI50: Homo sapiens
MDA-MB-231/ATCC = assay: NCI-60 SRB growth inhibition, one-dose and five-dose; format: cell-based; settings: Homo sapiens; for GI50: MDA-MB-231
[4] = tested on: Ovarian cancer cell lines; assay: NCI-60 SRB growth inhibition, subpanel; format: cell-based, human; settings: for GI50: Homo sapiens
SNB-19 = assay: NCI-60 SRB growth inhibition, one-dose and five-dose; format: cell-based; settings: Homo sapiens; for GI50: SNB-19; for inhibition at 10 µM: SNB-19, read-out: percent growth inhibition
SW-620 = assay: as above; format: cell-based; settings: Homo sapiens; for GI50: SW-620; for inhibition at 10 µM: SW-620, read-out: percent growth inhibition
UACC-257 = assay: as above; format: cell-based; settings: Homo sapiens; for GI50: UACC-257; for inhibition at 10 µM: UACC-257, read-out: percent growth inhibition
OVCAR-8 = assay: as above; format: cell-based; settings: Homo sapiens; for inhibition at 10 µM: OVCAR-8, read-out: percent growth inhibition
A549/ATCC = assay: as above; format: cell-based; settings: Homo sapiens; for GI50: A549; for inhibition at 10 µM: A549, read-out: percent growth inhibition
RPMI-8226 = assay: as above; format: cell-based; settings: Homo sapiens; for GI50: RPMI-8226; for inhibition at 10 µM: RPMI-8226, read-out: percent growth inhibition
CNS cancer cell lines = assay: NCI-60 SRB growth inhibition, subpanel; format: cell-based, human; settings: for GI50: Homo sapiens
RXF 393 = assay: NCI-60 SRB growth inhibition, one-dose and five-dose; format: cell-based; settings: Homo sapiens; for GI50: RXF 393; for inhibition at 10 µM: RXF 393, read-out: percent growth inhibition

In the case of `COc1ccc(CNc2cccc(C(=O)/C=C/c3cccnc3)c2)cc1OC` [Compound 5c, (E)-1–(3-((3,4-dimethoxybenzyl)amino)phenyl)-3-(pyridin-3-yl)prop-2-en-1-one], the GI50 (MDA-MB-468) is reported as 4.06 µM, the inhibition at 10 µM (MDA-MB-468) is reported as 157% and the GI50 (MOLT-4) is reported as 2.95 µM. The inhibition at 10 µM (MOLT-4) was 38.9%, the GI50 (UO-31) was 10.5 µM and the inhibition at 10 µM (UO-31; UO-31, read-out: percent growth inhibition) was 65%. It also gave a GI50 (HL-60(TB)) of 2.78 µM, an inhibition at 10 µM (HL-60(TB)) of 59.6% and a GI50 (SR) of 2.48 µM. The inhibition at 10 µM (SR; read-out: percent growth inhibition) was 92%, the GI50 (SF-295) was 10.4 µM and the inhibition at 10 µM (SF-295) was 53.7%. For the same compound, the GI50 ([1]; read-out: GI50 MG-MID) was 10.2 µM, the GI50 (Renal cancer cell lines; read-out: GI50 MG-MID) was 9.08 µM and the GI50 (NSCLC cell lines; read-out: GI50 MG-MID) was 11.2 µM. For the same compound, the GI50 (Colon cancer cell lines; read-out: GI50 MG-MID) was 4.45 µM, the GI50 (DU-145) was 12.4 µM and the inhibition at 10 µM (DU-145) was 60.5%. The IC50 (Human VEGFR-2) was 0.96 ± 0.012 µM, the GI50 (MDA-MB-435) was 2.46 µM and the inhibition at 10 µM (MDA-MB-435) was 84.7%. For the same compound, the GI50 (Leukaemia cell lines; read-out: GI50 MG-MID) was 2.6 µM, the GI50 (Melanoma cell lines; read-out: GI50 MG-MID) was 7.75 µM and the GI50 (SN12C) was 11.8 µM. It also gave an inhibition at 10 µM (SN12C) of 83.7%, a GI50 (SF-539) of 12.4 µM and an inhibition at 10 µM (SF-539) of 162%. For the same compound, the GI50 (CAKI-1) was 10.2 µM, the inhibition at 10 µM (CAKI-1) was 39.8% and the Safety index [2] was >1. For the same compound, the GI50 at 48 h [3] was > 100 µM, the GI50 (Breast cancer cell lines; read-out: GI50 MG-MID) was 5.96 µM and the GI50 (MDA-MB-231/ATCC) was 2.96 µM. For the same compound, the inhibition at 10 µM (MDA-MB-231/ATCC; MDA-MB-231, read-out: percent growth inhibition) was 94.5%, the GI50 ([4]; read-out: GI50 MG-MID) was 8.65 µM and the GI50 (SNB-19) was 9.49 µM. The inhibition at 10 µM (SNB-19) was 41.3%, the GI50 (SW-620) was 2.31 µM and the inhibition at 10 µM (SW-620) was 177%. The GI50 (UACC-257) was 12.5 µM, the inhibition at 10 µM (UACC-257) was 34% and the GI50 (OVCAR-8; OVCAR-8) was 4.01 µM. It also gave an inhibition at 10 µM (OVCAR-8) of 85.1%, a GI50 (A549/ATCC) of 17.2 µM and an inhibition at 10 µM (A549/ATCC) of 17.6%. It also gave a GI50 (RPMI-8226) of 2.14 µM, an inhibition at 10 µM (RPMI-8226) of 99.7% and a GI50 (CNS cancer cell lines; read-out: GI50 MG-MID) of 9.11 µM. The GI50 (RXF 393) was 10.8 µM and the inhibition at 10 µM (RXF 393) was 64.9%.

Compound `O=C(/C=C/c1cccnc1)c1cccc(NCc2csc3ccccc23)c1` [Compound 5d, (E)-1–(3-((benzo[b]thiophen-3-ylmethyl)amino)phenyl)-3-(pyridin-3-yl)prop-2-en-1-one] has a GI50 (MDA-MB-468) of 1.82 µM, an inhibition at 10 µM (MDA-MB-468) of 162% and a GI50 (MOLT-4) of 3.16 µM. For the same compound, the inhibition at 10 µM (MOLT-4) was 114%, the GI50 (UO-31) was 4.94 µM and the GI50 (HL-60(TB)) was 2.73 µM. It also gave an inhibition at 10 µM (HL-60(TB)) of 135%, a GI50 (SR) of 2.51 µM and a GI50 (SF-295) of 5.12 µM. For the same compound, the inhibition at 10 µM (SF-295) was 92.9%, the GI50 ([1]; read-out: GI50 MG-MID) was 5.56 µM and the GI50 ([1]; read-out: MG-MID GI50) was 5.56 µM. The “SI (Selectivity Index)” value ([1]; full panel MG-MID / Prostatic Cancer subpanel MG-MID) was 0.85, the GI50 (Renal cancer cell lines; read-out: GI50 MG-MID) was 6.46 µM and the GI50 (Renal cancer cell lines; read-out: MG-MID GI50) was 6.46 µM. The “SI (Selectivity Index)” value (Renal cancer cell lines; full panel MG-MID / Renal Cancer subpanel MG-MID) was 0.73, the GI50 (NSCLC cell lines; read-out: GI50 MG-MID) was 6.83 µM and the GI50 (NSCLC cell lines; read-out: MG-MID GI50) was 6.83 µM. The “SI (Selectivity Index)” value (NSCLC cell lines; full panel MG-MID / NSCLC subpanel MG-MID) was 0.69, the GI50 (Colon cancer cell lines; read-out: GI50 MG-MID) was 3.93 µM and the GI50 (Colon cancer cell lines; read-out: MG-MID GI50) was 3.93 µM. For the same compound, the “SI (Selectivity Index)” value (Colon cancer cell lines; full panel MG-MID / Colon Cancer subpanel MG-MID) was 1.21, the GI50 (DU-145) was 7.35 µM and the inhibition at 10 µM (DU-145) was 71.9%. For the same compound, the IC50 (Human VEGFR-2) was 1.46 ± 0.009 µM, the GI50 (MDA-MB-435) was 2.55 µM and the inhibition at 10 µM (MDA-MB-435) was 121%. For the same compound, the GI50 (Leukaemia cell lines; read-out: GI50 MG-MID) was 2.76 µM, the GI50 (Leukaemia cell lines; read-out: MG-MID GI50) was 2.76 µM and the “SI (Selectivity Index)” value (Leukaemia cell lines; full panel MG-MID / leukaemia subpanel MG-MID) was 1.72. For the same compound, the GI50 (Melanoma cell lines; read-out: GI50 MG-MID) was 3.76 µM, the GI50 (Melanoma cell lines; read-out: MG-MID GI50) was 3.76 µM and the “SI (Selectivity Index)” value (Melanoma cell lines; full panel MG-MID / Melanoma subpanel MG-MID) was 1.26. It also gave a GI50 (SN12C) of 3.02 µM, an inhibition at 10 µM (SN12C) of 128% and a GI50 (SF-539) of 6.15 µM. For the same compound, the inhibition at 10 µM (SF-539) was 171%, the GI50 (CAKI-1) was 9.3 µM and the inhibition at 10 µM (CAKI-1) was 98.3%. For the same compound, the Safety index [2] was >1, the GI50 at 48 h [3] was > 100 µM and the GI50 (Breast cancer cell lines; read-out: GI50 MG-MID) was 2.69 µM. For the same compound, the GI50 (Breast cancer cell lines; read-out: MG-MID GI50) was 2.69 µM, the “SI (Selectivity Index)” value (Breast cancer cell lines; full panel MG-MID / Breast Cancer subpanel MG-MID) was 1.76 and the GI50 (MDA-MB-231/ATCC) was 2.67 µM. For the same compound, the GI50 ([4]; read-out: GI50 MG-MID) was 5.3 µM, the GI50 ([4]; read-out: MG-MID GI50) was 5.3 µM and the “SI (Selectivity Index)” value ([4]; full panel MG-MID / Ovarian Cancer subpanel MG-MID) was 0.89. It also gave a GI50 (SNB-19) of 3.86 µM, an inhibition at 10 µM (SNB-19) of 134% and a GI50 (SW-620) of 1.84 µM. The inhibition at 10 µM (SW-620) was 166%, the GI50 (UACC-257) was 5.58 µM and the inhibition at 10 µM (UACC-257) was 105%. The inhibition at 10 µM (OVCAR-8) was 119%, the GI50 (A549/ATCC) was 11.5 µM and the inhibition at 10 µM (A549/ATCC) was 53.1%. For the same compound, the GI50 (RPMI-8226) was 1.99 µM, the inhibition at 10 µM (RPMI-8226) was 119% and the GI50 (CNS cancer cell lines; read-out: GI50 MG-MID) was 5.4 µM. For the same compound, the GI50 (CNS cancer cell lines; read-out: MG-MID GI50) was 5.4 µM, the “SI (Selectivity Index)” value (CNS cancer cell lines; full panel MG-MID / CNS Cancer subpanel MG-MID) was 0.88 and the GI50 (RXF 393) was 4.67 µM. It also gave an inhibition at 10 µM (RXF 393) of 177%.
